According to paper PMC6934184, “Selective DNA-PKcs inhibition extends the therapeutic index of localized radiotherapy and chemotherapy” (The Journal of Clinical Investigation, 2019):

Target: T1, DYRK3 (Homo sapiens, UniProt O43781)
T1 construct: purchased Thermo Fisher Scientific (Life Technologies) SelectScreen
Test: SelectScreen Z'LYTE
Assay type: biochemical
Method in brief: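 SelectScreen broad panel; activity (Z'LYTE, Adapta) plus binding formats. ATP: Km app for CSF1R Z'LYTE; 10 for CAMK1 Adapta. Readout = % per kinase.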

T1 sequence (O43781 whole entry): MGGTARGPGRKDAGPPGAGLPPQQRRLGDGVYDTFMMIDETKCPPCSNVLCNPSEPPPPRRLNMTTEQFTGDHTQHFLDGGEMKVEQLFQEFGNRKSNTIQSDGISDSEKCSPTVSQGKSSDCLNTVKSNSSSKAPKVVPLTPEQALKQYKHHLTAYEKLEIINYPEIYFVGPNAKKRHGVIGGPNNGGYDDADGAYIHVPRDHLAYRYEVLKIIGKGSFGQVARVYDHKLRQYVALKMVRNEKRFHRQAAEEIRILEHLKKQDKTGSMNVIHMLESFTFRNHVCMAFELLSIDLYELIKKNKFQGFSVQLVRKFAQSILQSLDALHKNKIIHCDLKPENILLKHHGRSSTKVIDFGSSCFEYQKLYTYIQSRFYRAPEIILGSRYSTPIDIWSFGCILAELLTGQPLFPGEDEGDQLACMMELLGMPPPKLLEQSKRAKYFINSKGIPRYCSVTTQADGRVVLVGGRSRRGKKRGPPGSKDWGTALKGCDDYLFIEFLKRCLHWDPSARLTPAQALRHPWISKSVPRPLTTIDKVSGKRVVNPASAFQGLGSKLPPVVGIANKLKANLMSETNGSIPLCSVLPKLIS

CN(C(=O)CN1CCOCC1)c1ccc2sc3c(-c4cccc5c(=O)cc(N6CC7CCC(C6)O7)oc45)cccc3c2c1 [NU5455]
inhibition at 1 µM: 2.6%
